The values that follow come from patent US20260272923A1, “NONSENSE MEDIATED DECAY INHIBITOR COMPOUNDS” (The Johns Hopkins University, priority 2023, published 2026).

Data set [1] deals with truncated mutant TP53 protein. Description: TP53 western blot in TP53 knockout clones. It is filed as cell-based. Particulars: for expression of truncated mutant TP53 protein: TP53 knockout cell line with homozygous mutation, DO-1 antibody. How it is done: (§1) To confirm generality of the NMD HTS hits, validations were performed on isogenic STAG2 and TP53 knockouts in a second cell line background, RPtec (renal) cells. Transcript recovery was first evaluated in STAG2 and TP53 isogenic knockout clones from this second background. […] A TP53 knockout cell line was then selected with a homozygous mutation predicted to generate a truncated TP53 protein readily identifiable by established TP53 antibodies (DO-1). […] Using cell lines where the TP530 isoform transcripts are expected to be intact, an increase in the TP53$ isoform was also observed in cell lines treated with the NMD inhibitors (FIG. 1E middle and left column). […] Based on strong induction of predicted mutant truncated protein across multiple isogenic cell lines LY3023414 was selected as the NMD inhibiting compound of interest. LY3023414 was created as a phosphatidylinositol 3-kinase (PI3K) inhibitor with activity against AKT Serine/Threonine Kinase 1 (AKT1) and Target of Rapamycin (mTOR).

The subject of data set [2] is NMD sensitive transcripts (TP53β). Description: Quantitative real time PCR of TP53α and TP53β transcripts in parental RPE1 and RPTec cells. It is filed as cell-based. How it is done: as §1
For data set [3], the system named is nonsense mediated decay (NMD). Description: RNA sequencing of NCI-H358 and LS180 cancer cell lines. It is filed as cell-based. An excerpt: (§2) It was next sought to evaluate whether LY3023414 could relieve repression of indel containing transcripts in cancer cells. The microsatellite stable NCI-H358 and microsatellite instable LS180 lung and colorectal cancer cell lines were chosen respectively. Nearly 40% of heterozygous indel and 25% of nonsense single base-pair mutation containing genes show increased expression of their mutant allele when treated with LY3023414 when evaluated by RNA sequencing (FIG. 2A). […] Heterozygous single nucleotide polymorphism (SNP) Ring Finger Protein 43 (RNF43) and drosha ribonuclease […] (DROSHA) served as controls, and allele ratios remain unchanged with treatment (FIG. 2B). To investigate for changes at the protein level, NCI-H358 cells were treated for 24 hours with either LY3023414 or DMSO.
(§3) Analyzing a wider set of 21 NMD sensitive genes from the RNA-Seq analysis in LS180 confirmed that LY3023414 and SMG1 specific inhibitor increase the same 18 genes with a greater than 80% re-expression rate, in both cell lines. […] As SMG1 inhibition is an off target effect for LY3023414, the concentrations used in this study may result in inhibition of a number of different kinases.

Data set [4] deals with nonsense mediated decay (NMD). Description: Targeted RNA sequencing of heterozygous indel mutations in NCI-H358 and LS180 cells. It is filed as cell-based. Particulars: NCI-H358 and LS180, in vitro.
From the text: as §2, §3
(§4) To confirm disruption of downstream signaling of SMG1, a western blot was performed with phosphorylation specific antibodies for UPF1.

Data set [5] deals with NMD targeted mutant protein (EXOC1, SPTAN1). The data set can be described thus: Western blot of mutant proteins in NCI-H358 and LS180 cells. It is filed as cell-based. The settings on record: NCI-H358 cells, 24 hours.
From the text: as §2, §3, §4

Data set [6] concerns nonsense mediated decay (NMD). Description: NCI-H358 and LS180 xenograft tumors in NOD-SCID mice, mutant RNA transcripts and tolerability. It is filed as in vivo.
The subject of a further data set is phosphorylated UPF1. Description: Phospho-UPF1 specific western blot. It is filed as cell-based. Particulars: FIG. 3D. How it is done:
as §3, §4

For data set [7], the system named is nonsense mediated decay (NMD). The data set can be described thus: Targeted RNA-sequencing of indel genes in LS180 cells. The settings on record: serial dilution starting at 5 uM, 16 hrs. It is filed as cell-based. How it is done: LS180 Cells were plated into 96 well plates at 1e4 cells/well. The compound of Formula III was solubilized in DMSO and added in a serial dilution starting at 5 uM and diluting 1:2. Cells were incubated for 16 hrs at 37 C and 5% CO2. RNA was harvested using an RNeasy kit (Qiagen). Reverse transcription was performed per manufacturer's instructions (High Capacity cDNA kit from Applied Biosciences). Primers specific for the indel mutation site for 3 genes were used, and at least one primer from each set overlapped an exon-exon boundary. RNF43 is a common SNP that is heterozygous in LS180 and was used as a negative control. After PCR amplification, products were barcoded with an 8 bp sequence so the well it originated in could be determined, and sequenced on a Miseq (Illumina). Transcripts from the wild type and mutant allele were counted to determine abundance of each with treatment or without (FIG. 8A).

Data set [8] deals with mutant protein (TP53). The data set can be described thus: TP53 western blot in H358, LS180 and RPE TP53 KO clone 224. It is filed as cell-based. Particulars: 5 uM, 16 hours. How it is done:
H358 (negative control), LSl80, and RPE TP53 KO line clone 224 were plated (at 1e5 cells per well) into 6 well plates. Wells were treated with 5 uM of the compound of Formula III for 16 hours. Cells were harvested, pelleted and washed with PBS. Cells were lysed using RIPA buffer (Thermo Scientific) and then run through a Qiashredder column (Qiagen) following manufacturer's instructions. Protein was quantified using a BCA Kit (Pierce). 50 ug of protein was loaded into 5-15% polyacrylamide gels (Biorad) and run for 30 min at 200V. Protein was transferred to a nitrocellulose membrane following manufacturer's recommendations and stained with a TP53 protein (clone DO-1 from Cell Signaling) overnight in 3% milk with TBS-T. HRP conjugated secondary antibody was used for detection and imaged on a gel imager (Bio Rad) (FIG. 8B).

The test system of data set [9] is nonsense mediated decay (NMD). The data set can be described thus: Targeted RNA-sequencing of subcutaneous H358 and LS180 tumors in nude mice. It is filed as in vivo. The settings on record: IP dose at 30 mg/kg, H358 or LS180 tumors, 16 hours after treatment. How it is done: All animal work was done under the supervision and guidance of Johns Hopkins Animal Care and Use committee with appropriate protocols and humane standards of care. LS180 and H358 cell lines (ATCC) were placed subcutaneously in the back of nude mice (Jackson Laboratories). The compound of Formula III was solubilized in 10% cremaphor (Sigma Aldrich) with 2% glycerol (Sigma Aldrich) and sterilized by 0.22 uM filter (Thermo Scientific). After tumors reached palpable size, about 7 days, mice were treated with […] of the compound of Formula III by IP injection. 16 hours after treatment, mice were sacked, and tumors were harvested and stored in RNA Later (Thermo Scientific). RNA was harvested using an RNeasy kit (Qiagen) and Qiashredder (Qiagen). Reverse transcription was performed per manufacturer's instructions (High Capacity cDNA kit from Applied Biosciences). Primers specific for the indel mutation site for 3 genes were used, and at least one primer from each set overlapped an exon-exon boundary. […] After PCR amplification, products were barcoded with an 8 bp sequence so the well it originated in could be determined, and sequenced on a Miseq (Illumina). Transcripts from the wild type and mutant allele were counted to determine abundance of each with treatment or without (FIGS. 9A-9B).

Data set [10] deals with nonsense mediated decay (NMD). The data set can be described thus: Ratiometric mutant/wild type transcript sequencing assay (HTS) in RPE1 STAG2 and TP53 isogenic knockout cell lines. It is filed as cell-based. The source says:
An experimental system was generated to identify and evaluate NMD inhibitors based on a panel of isogenic cell lines developed to assess tumor suppressor gene function and synthetic lethality. Briefly, common tumor suppressor genes were individually knocked out in multiple non-cancerous cell lines using the Clustered Regularly Interspaced Short Palindromic Repeats (CRISPR)-Cas9 system. As part of this effort, two genes displaying strong activation of NMD in response to indel creation were identified, Stromal Antigen 2 (STAG2) and Tumor Protein p53 (TP53). The absence of detectable protein in these knock out cell lines was verified via western blots against STAG2 and immunohistochemistry for TP53. Further, active RNA decay of the mutant transcripts was identified through whole transcriptome RNA-sequencing. […]
A high throughput screen (HTS) was then performed by treating the isogenic cell line mixture with the SelleckChem Bioactive library, consisting of 2,658 small molecules and natural products (FIG. 1A). Total RNA was harvested from cells 16 hours post treatment and the gRNA target regions were amplified using a panel of primers (one for TP53 and one for STAG2) and mutant and wild type transcript abundance was quantified using next generation sequencing. […]

For data set [11], the system named is mutant form of TP53 protein. The data set can be described thus: Western blot against TP53 in NCI-H716 and NCI-H2228 cell lines.
Data set [12] relates to nonsense mediated decay (NMD). Description: Real time PCR of STAG2 transcripts in RPE STAG2 knockout cells. It is filed as cell-based. Particulars: serial dilution starting at 10 uM, 16 hrs. How it is done: RPE STAG2 knockout cells were created and plated into 96 well plates at 1e4 cells/well. The compound of Formula II was solubilized in DMSO and added in a serial dilution starting at 10 uM and diluting 1:2. Cells were incubated for 16 hrs at 37 C and 5% CO2. RNA was harvested using an RNeasy kit (Qiagen). Real time PCR was performed using primers specific for STAG2 transcripts and at least one primer overlapped an exon-exon boundary (FIG. 7A).

In data set [13] the test system is mutant protein (TP53). Description: TP53 western blot in TP53 KO lines. It is filed as cell-based. Particulars: 5 uM, 16 hours. How it is done: TP53 KO lines were created and plated (at 1e5 cells per well) into 6 well plates. Wells were treated with 5 uM of the compound of Formula II for 16 hours. Cells were harvested, pelleted and washed with PBS. Cells were lysed using RIPA buffer (Thermo Scientific) and then run through a Qiashredder column (Qiagen) following manufacturer's instructions. Protein was quantified using a BCA Kit (Pierce). 50 ug of protein was loaded into 5-15% polyacrylamide gels (Biorad) and run for 30 min at 200V. Protein was transferred to a nitrocellulose membrane following manufacturer's recommendations and stained with a TP53 protein (clone DO-1 from Cell Signaling) overnight in 3% milk with TBS-T. HRP conjugated secondary antibody was used for detection and imaged on a gel imager (Bio Rad) (FIG. 7B).

In the case of `CO[C@@H](C)Cn1c(=O)n(C)c2cnc3ccc(-c4cncc(C(C)(C)O)c4)cc3c21` [LY3023414], the “induction of TP53β and mutant TP53 (western blot)” value in data set [1] (RPE TP53 clone 223, RPTec TP53 KO 588, full-length not induced) was “prominently induced”. In addition, the “expression of truncated mutant TP53 protein” value in data set [1] is recorded as “robustly induced expression of the truncated mutant TP53 protein”. In addition, the “TP53α and TP53β transcript levels” value in data set [2] is listed as “only the NMD regulated (TP53β) transcript levels increased with treatment”. Further, in data set [3], the “heterozygous indel containing genes with increased expression of mutant allele” value is on record as roughly 40% and the “nonsense single base-pair mutation containing genes with increased expression of mutant allele” value is listed as 25%. In addition, the “mutant allele RNA expression” value in [4] was “significant increased expression of the mutant allele”. Further, the “truncated mutant EXOC1 and SPTAN1 protein expression” value in [5] is “truncated mutant protein only expressed after treatment with LY3023414”. Also, in [6] (mice treated with LY3023414), the “autopsies of treated animals” value is reported as “no abnormalities” and the weight loss result is recorded as “severe weight loss”. In addition, in data set [6] (single dose by oral gavage, tumors harvested over 24 hours), the “expression of mutant RNA transcripts in tumors” value is listed as “increase in the expression of mutant RNA transcripts”. The phospho-UPF1 levels result in the data set with phosphorylated UPF1 is reported as “increases the levels of phospho-UPF”.
Turning to `CNC(=O)Nc1ccc(-c2cc(-c3ccnc(Nc4ccc(Cl)c(S(=O)(=O)N5CCN(C)CC5)c4)n3)ccn2)cc1` [compound of Formula III], the “mutant RNA re-expression” value in data set [7] is listed as “re-expresses mutant RNA in vitro”. The mutant protein re-expression entry with mutant protein (TP53) [8] is recorded as “re-expresses mutant protein in vitro”. Moreover, in [9], the “in vivo NMD inhibition (re-expression of NMD downregulated genes)” value is reported as “in vivo NMD inhibition activity”.
`COc1ccc(C[C@H]2NC[C@H](O)[C@H]2OC(C)=O)cc1` [Anisomycin]: the mutant transcript fraction result in [10] (16 hours post treatment, in all three cell lines, 0.5 = 4 standard deviations above DMSO controls) is “above 0.5”.
For the compound `O=c1[nH]cc(F)c(=O)[nH]1` [5-fluorouracil], the TP53 protein levels entry in [11] is “no effect on TP53 levels”.
`CNC(=O)Nc1ccc(-c2cc(-c3ccnc(Nc4ccc(Cl)c(S(=O)(=O)N(CCO)CCO)c4)n3)ccn2)cc1` [compound of Formula II]: the “mutant RNA re-expression” value in data set [12] is given as “re-expresses mutant RNA”. Besides, the mutant protein re-expression entry with mutant protein (TP53) [13] is reported as “re-expresses mutant protein”.
On to `CC[C@H]1CN2CCc3cc(OC)c(OC)cc3[C@@H]2C[C@@H]1C[C@H]1NCCc2cc(OC)c(OC)cc21` [emetine], for which the “recovery of mutant RNA transcript expression” value in data set [10] (RPE1 STAG2/TP53 knockout cell line mixture) was found to be 6 fold.
Consider `O=C(CC1NCCCC1O)Cn1cnc2cc(Br)c(Cl)cc2c1=O` (centres unmarked) [halofuginone], for which, in [1], the “expression of truncated mutant TP53 protein” value was “robustly induced expression of the truncated mutant TP53 protein”.
